Reference: PubChem BioAssay AID256 (DTP/NCI, 2004)
Toxic doses and inconclusive results are not listed.

Tested on: CD2F1 mice, L1210 leukemia ip, survival T/C
Assay: NCI In Vivo Anticancer Drug Screen. Data for tumor model L1210 Leukemia (intraperitoneal) in CD2F1 (CDF1) mice
Details: higher = longer survival
Procedure, shortened: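 Vehicle-treated tumor-bearing mice served as controls (C) for compound-treated mice (T). Reported figure is T divided by C.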

[1] = endpoint: mean survival time, dose: 100.0 mg/kg/injection, schedule: Q04DX002 (ip), vehicle: saline with Tween-80
[2] = endpoint: mean survival time, dose: 200.0 mg/kg/injection, schedule: Q04DX002 (ip), vehicle: saline with Tween-80
[3] = endpoint: mean survival time, dose: 400.0 mg/kg/injection, schedule: Q04DX002 (ip), vehicle: saline with Tween-80
[4] = endpoint: mean survival time, dose: 100.0 mg/kg/injection, schedule: Q01DX009 (ip), vehicle: saline with Tween-80
[5] = endpoint: mean survival time, dose: 100.0 mg/kg/injection, schedule: Q04DX003 (ip), vehicle: saline with Tween-80
[6] = endpoint: mean survival time, dose: 200.0 mg/kg/injection, schedule: Q01DX009 (ip), vehicle: saline with Tween-80
[7] = endpoint: mean survival time, dose: 200.0 mg/kg/injection, schedule: Q04DX003 (ip), vehicle: saline with Tween-80
[8] = endpoint: mean survival time, dose: 400.0 mg/kg/injection, schedule: Q01DX009 (ip), vehicle: saline with Tween-80
[9] = endpoint: mean survival time, dose: 400.0 mg/kg/injection, schedule: Q04DX003 (ip), vehicle: saline with Tween-80
[10] = endpoint: mean survival time, dose: 50.0 mg/kg/injection, schedule: Q01DX009 (ip), vehicle: saline with Tween-80

## CCCCCc1cc(/C=C2/N=C(c3ccc[nH]3)C=C2OC)[nH]c1C
endpoint: mean survival time, dose: 0.25 mg/kg/injection, schedule: Q01DX009 (ip), vehicle: saline with Tween-80
  T/C: 92 % of control
endpoint: mean survival time, dose: 0.5 mg/kg/injection, schedule: Q01DX009 (ip), vehicle: saline with Tween-80
  T/C: 97 % of control
endpoint: mean survival time, dose: 1.0 mg/kg/injection, schedule: Q01DX009 (ip), vehicle: saline with Tween-80
  T/C: 101 % of control
endpoint: mean survival time, dose: 2.0 mg/kg/injection, schedule: Q01DX009 (ip), vehicle: saline with Tween-80
  T/C: 103 % of control
endpoint: mean survival time, dose: 4.0 mg/kg/injection, schedule: Q01DX009 (ip), vehicle: saline with Tween-80
  T/C: 92 % of control

## Nc1c[nH]c(=O)[nH]c1=O
[1]
  T/C: 101 % of control
[2]
  T/C: 109 % of control
[3]
  T/C: 109 % of control

## c1ccc(C(Nc2ncnc3nncnc23)c2ccccc2)cc1
endpoint: mean survival time, dose: 75.0 mg/kg/injection, schedule: Q01DX001 (ip), vehicle: other
  T/C: 94 % of control

## O=C(O)C1CC2C=CC1C2 (stereo unspecified)
[4]
  T/C: 94 % of control
[5]
  T/C: 96 % of control
[6]
  T/C: 91 % of control
[7]
  T/C: 96 % of control
[8]
  T/C: 94 % of control
[9]
  T/C: 94 % of control

## Nc1c([N+](=O)[O-])cncc1[N+](=O)[O-]
endpoint: mean survival time, dose: 6.25 mg/kg/injection, schedule: Q01DX009 (ip), vehicle: saline sonified
  T/C: 102 % of control
endpoint: mean survival time, dose: 6.25 mg/kg/injection, schedule: Q04DX003 (ip), vehicle: saline with Tween-80
  T/C: 98 % of control
endpoint: mean survival time, dose: 12.5 mg/kg/injection, schedule: Q01DX009 (ip), vehicle: saline sonified
  T/C: 98 % of control
endpoint: mean survival time, dose: 12.5 mg/kg/injection, schedule: Q04DX003 (ip), vehicle: saline with Tween-80
  T/C: 102 % of control
endpoint: mean survival time, dose: 25.0 mg/kg/injection, schedule: Q01DX009 (ip), vehicle: saline sonified
  T/C: 98 % of control
endpoint: mean survival time, dose: 25.0 mg/kg/injection, schedule: Q04DX003 (ip), vehicle: saline with Tween-80
  T/C: 102 % of control

## BrCC[CH2][Sn]([Br])([Br])[Br]
endpoint: mean survival time, dose: 50.0 mg/kg/injection, schedule: Q01DX009 (ip), vehicle: saline
  T/C: 103 % of control
endpoint: mean survival time, dose: 100.0 mg/kg/injection, schedule: Q01DX009 (ip), vehicle: saline
  T/C: 91 % of control
endpoint: mean survival time, dose: 200.0 mg/kg/injection, schedule: Q01DX009 (ip), vehicle: saline
  T/C: 95 % of control

## C=CC1=NC(C)(C)CC(C)O1 (stereo unspecified)
endpoint: mean survival time, dose: 0.78 mg/kg/injection, schedule: Q01DX009 (ip), vehicle: water
  T/C: 104 % of control
endpoint: mean survival time, dose: 1.56 mg/kg/injection, schedule: Q01DX009 (ip), vehicle: water
  T/C: 102 % of control
endpoint: mean survival time, dose: 3.13 mg/kg/injection, schedule: Q01DX009 (ip), vehicle: water
  T/C: 105 % of control
endpoint: mean survival time, dose: 6.25 mg/kg/injection, schedule: Q01DX009 (ip), vehicle: water
  T/C: 104 % of control
endpoint: mean survival time, dose: 12.5 mg/kg/injection, schedule: Q01DX009 (ip), vehicle: water
  T/C: 100 % of control

## O=C(O)c1c2ccccc2cc2ccccc12
endpoint: mean survival time, dose: 100.0 mg/kg/injection, schedule: Q04DX003 (ip), vehicle: Klucel (hydroxypropylcellulose) (HPC)
  T/C: 101 % of control
endpoint: mean survival time, dose: 200.0 mg/kg/injection, schedule: Q04DX003 (ip), vehicle: Klucel (hydroxypropylcellulose) (HPC)
  T/C: 95 % of control
endpoint: mean survival time, dose: 400.0 mg/kg/injection, schedule: Q04DX003 (ip), vehicle: Klucel (hydroxypropylcellulose) (HPC)
  T/C: 90 % of control

## CC(C)OC(=O)Nc1ncn[nH]1
[1]
  T/C: 104 % of control
[2]
  T/C: 108 % of control
[3]
  T/C: 93 % of control

## O=[N+]([O-])c1ccc(Cl)c2c([N+](=O)[O-])cccc12
[10]
  T/C: 100 % of control
[4]
  T/C: 93 % of control
[6]
  T/C: 96 % of control

## CNC(=O)Sc1nnnc2ccccc12
[5]
  T/C: 101 % of control
[7]
  T/C: 93 % of control
[9]
  T/C: 98 % of control

## CN(C)C(C)(C)P(=O)(O)O
endpoint: mean survival time, dose: 100.0 mg/kg/injection, schedule: Q04DX003 (ip), vehicle: saline
  T/C: 98 % of control
endpoint: mean survival time, dose: 200.0 mg/kg/injection, schedule: Q04DX003 (ip), vehicle: saline
  T/C: 96 % of control
endpoint: mean survival time, dose: 400.0 mg/kg/injection, schedule: Q04DX003 (ip), vehicle: saline
  T/C: 96 % of control

## Brc1ccccc1-c1ccccc1-c1ccccc1
[4]
  T/C: 106 % of control
[6]
  T/C: 101 % of control
[8]
  T/C: 101 % of control

## CC1(C)CC2(OC2c2ccc([N+](=O)[O-])cc2)C(=O)c2ccccc21 (stereo unspecified)
endpoint: mean survival time, dose: 12.5 mg/kg/injection, schedule: Q01DX009 (ip), vehicle: Klucel (hydroxypropylcellulose) (HPC)
  T/C: 93 % of control
endpoint: mean survival time, dose: 25.0 mg/kg/injection, schedule: Q01DX009 (ip), vehicle: Klucel (hydroxypropylcellulose) (HPC)
  T/C: 94 % of control
endpoint: mean survival time, dose: 50.0 mg/kg/injection, schedule: Q01DX009 (ip), vehicle: Klucel (hydroxypropylcellulose) (HPC)
  T/C: 98 % of control
[10]
  T/C: 93 % of control
endpoint: mean survival time, dose: 100.0 mg/kg/injection, schedule: Q01DX009 (ip), vehicle: Klucel (hydroxypropylcellulose) (HPC)
  T/C: 100 % of control
[4]
  T/C: 93 % of control
[5]
  T/C: 89 % of control
endpoint: mean survival time, dose: 200.0 mg/kg/injection, schedule: Q01DX009 (ip), vehicle: Klucel (hydroxypropylcellulose) (HPC)
  T/C: 100 % of control
[6]
  T/C: 96 % of control
[7]
  T/C: 88 % of control
endpoint: mean survival time, dose: 400.0 mg/kg/injection, schedule: Q01DX009 (ip), vehicle: Klucel (hydroxypropylcellulose) (HPC)
  T/C: 96 % of control

## COc1ccc(NC(=O)Nc2cc(Cl)c(OC)cc2OC)cc1
[1]
  T/C: 93 % of control
[2]
  T/C: 86 % of control

## COC(=O)N1c2ccc(OC)cc2C=CC1C#N (stereo unspecified)
[4]
  T/C: 94 % of control
[5]
  T/C: 96 % of control
[6]
  T/C: 95 % of control
[7]
  T/C: 102 % of control
[8]
  T/C: 103 % of control
[9]
  T/C: 94 % of control

## CCCCCCCCC[n+]1ccc(C(N)=O)cc1
endpoint: mean survival time, dose: 25.0 mg/kg/injection, schedule: Q01DX009 (ip), vehicle: saline with Tween-80
  T/C: 103 % of control
[10]
  T/C: 95 % of control
[4]
  T/C: 95 % of control

## c1cc2nc(c1)CSCCCCCCCCSC2
[4]
  T/C: 88 % of control
[6]
  T/C: 91 % of control
[8]
  T/C: 95 % of control

## N#CCCN=C1C=CC(=C(c2ccc(NCCC#N)cc2)c2ccccc2Cl)C=C1
[2]
  T/C: 93 % of control
[3]
  T/C: 103 % of control

## COc1ccc2c(O)c(C)c(=O)n(C)c2c1
[1]
  T/C: 96 % of control
[2]
  T/C: 96 % of control
[3]
  T/C: 93 % of control

## CN(C)c1ccc(C(=N)c2ccc(N(C)C)cc2)cc1 (tested in a mixture with another compound)
endpoint: mean survival time, dose: 12.5 mg/kg/injection, schedule: Q01DX009 (ip), vehicle: saline with Tween-80
  T/C: 98 % of control
[10]
  T/C: 93 % of control

## CC1(C)OC2C(/C=C3/CC(=O)NC3=O)OC(n3ccc(=O)[nH]c3=O)C2O1 (stereo unspecified)
endpoint: mean survival time, dose: 12.5 mg/kg/injection, schedule: Q01DX005 (ip), vehicle: distilled water + Tween-80
  T/C: 100 % of control
endpoint: mean survival time, dose: 25.0 mg/kg/injection, schedule: Q01DX005 (ip), vehicle: distilled water + Tween-80
  T/C: 100 % of control
endpoint: mean survival time, dose: 50.0 mg/kg/injection, schedule: Q01DX005 (ip), vehicle: distilled water + Tween-80
  T/C: 103 % of control
endpoint: mean survival time, dose: 100.0 mg/kg/injection, schedule: Q01DX005 (ip), vehicle: distilled water + Tween-80
  T/C: 100 % of control
endpoint: mean survival time, dose: 200.0 mg/kg/injection, schedule: Q01DX005 (ip), vehicle: distilled water + Tween-80
  T/C: 103 % of control

## O=NN(CCCl)C(=O)Nc1ccc(Br)cn1
endpoint: mean survival time, dose: 20.0 mg/kg/injection, schedule: Q01DX001 (ip), vehicle: carboxymethylcellulose (CMC)
  T/C: 115 % of control

## CCCCCCC#CC(=O)OC
[4]
  T/C: 101 % of control
[5]
  T/C: 96 % of control
[6]
  T/C: 101 % of control
[7]
  T/C: 102 % of control
[9]
  T/C: 97 % of control

## CC(C)([NH-])C[NH-].O=C(O)CCO.[Pt+2]
endpoint: median survival time, dose: 20.0 mg/kg/injection, schedule: Q04DX003 (ip), vehicle: saline
  T/C: 255 % of control
endpoint: median survival time, dose: 20.0 mg/kg/injection, schedule: Q04DX003 (ip), vehicle: water
  T/C: 173 % of control
endpoint: median survival time, dose: 40.0 mg/kg/injection, schedule: Q04DX003 (ip), vehicle: saline
  T/C: 232 % of control
endpoint: median survival time, dose: 40.0 mg/kg/injection, schedule: Q04DX003 (ip), vehicle: water
  T/C: 170 % of control
endpoint: median survival time, dose: 80.0 mg/kg/injection, schedule: Q04DX003 (ip), vehicle: saline
  T/C: 116 % of control
endpoint: median survival time, dose: 80.0 mg/kg/injection, schedule: Q04DX003 (ip), vehicle: water
  T/C: 90 % of control

## Nc1nc(Cl)ncc1C1OC(CO)C(O)C1O (stereo unspecified)
endpoint: mean survival time, dose: 12.5 mg/kg/injection, schedule: Q01DX005 (ip), vehicle: water
  T/C: 91 % of control
endpoint: mean survival time, dose: 25.0 mg/kg/injection, schedule: Q01DX005 (ip), vehicle: water
  T/C: 95 % of control
endpoint: mean survival time, dose: 50.0 mg/kg/injection, schedule: Q01DX005 (ip), vehicle: water
  T/C: 91 % of control
endpoint: mean survival time, dose: 100.0 mg/kg/injection, schedule: Q01DX005 (ip), vehicle: water
  T/C: 87 % of control
endpoint: mean survival time, dose: 200.0 mg/kg/injection, schedule: Q01DX005 (ip), vehicle: water
  T/C: 98 % of control
